In patent publication US9725414B2, “Fungicidal N-bicycloalkyl and N-tricycloalkyl pyrazole-4-(thio)carboxamide derivatives” (priority 2011, dated 2017) one finds logP and Efficacy data, which are given here for 12 compounds.

A word on the logP: it is the decadic logarithm of the partition coefficient of the neutral form, usually between octanol and water.

A short description of data set [1]: log P by HPLC on reversed-phase column (C 18), EEC Directive 79831 Annex V.A8. Conditions: HPLC reversed-phase C 18, 40° C., 0.1% aqueous formic acid and acetonitrile gradient; several values = mixture of two or more isomers. It counts as physicochemical. The method in brief:
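Reversed-phase C18 HPLC at 40° C, 0.1% aqueous formic acid/acetonitrile linear gradient 10% to 90% acetonitrile, per EEC Directive 79831 Annex V.A8. log P obtained from retention time by linear interpolation between unbranched alkan-2-ones (C3-C16) of known log P.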

Data set [2] has as its system Sphaerotheca fuliginea. Briefly: Example A: in vivo preventive test on Sphaerotheca fuliginea (cucumber). Conditions: 500 ppm of active ingredient, evaluated 7 days after inoculation. How it is done:
In Vivo Preventive Test on Sphaerotheca fuliginea (Cucumber) Solvent: 49 parts by weight of N,N-dimethylformamide Emulsifier: 1 part by weight of alkylarylpolyglycolether To produce a suitable preparation of active compound, 1 part by weight of active compound is mixed with the stated amounts of solvent and emulsifier, and the concentrate is diluted with water to the desired concentration. To test for preventive activity, young plants are sprayed with the preparation of active compound at the stated rate of application. One day after this treatment, the plants are inoculated with an aqueous spore suspension of Sphaerotheca fuliginea. Then the plants are placed in a greenhouse at approximately 23° C. and a relative atmospheric humidity of approximately 70%.

A further data set deals with Alternaria solani. Briefly: Example C: in vivo preventive test on Alternaria solani (tomato). To be noted: 500 ppm of active ingredient, evaluated 7 days after inoculation. How it is done: (§1) In Vivo Preventive Test on Alternaria solani (Tomato) Solvent: 49 parts by weight of N,N-dimethylformamide Emulsifier: 1 part by weight of alkylarylpolyglycolether To produce a suitable preparation of active compound, 1 part by weight of active compound is mixed with the stated amounts of solvent and emulsifier, and the concentrate is diluted with water to the desired concentration. To test for preventive activity, young plants are sprayed with the preparation of active compound at the stated rate of application. One day after this treatment, the plants are inoculated with an aqueous spore suspension of Alternaria solani. The plants remain for one day in an incubation cabinet at approximately 22° C. and a relative atmospheric humidity of 100%. Then the plants are placed in an incubation cabinet at approximately 20° C. and a relative atmospheric humidity of 96%.

Data set [3] concerns Pyrenophora teres. Briefly: Example E: in vivo preventive test on Pyrenophora teres (barley), DMF/emulsifier preparation. To be noted: 500 ppm of active ingredient, evaluated 7-9 days after inoculation. The protocol:
as §1, with “Pyrenophora teres (Barley)” for “Alternaria solani (Tomato)”, “alkylaryl polyglycol ether” for “alkylarylpolyglycolether”, “Pyrenophora teres.” for “Alternaria solani.”, “48 hours” for “one day”, “at” for “at approximately”, “100%.” for “100%. Then the plants are placed in an incubation cabinet at approximately 20° C. and a relative atmospheric humidity of 96%.”

Another data set concerns Botrytis cinerea. Briefly: Example P: in vivo preventive test on Botrytis cinerea (grey mould), gherkin plants. To be noted: 500 ppm of active ingredient, grading 4 to 5 days after contamination. How it is done: In Vivo Preventive Test on Botrytis cinerea (Grey Mould) […] Gherkin plants (“Vert petit de Paris” variety), sown in starter cups on a 50/50 peat soil pozzolana substrate and grown at 24° C. are treated at the Z11 cotyledon stage by spraying with the active ingredient prepared as described above. Plants, used as controls, are treated with the mixture of acetone/tween/DMSO/water not containing the active material. After 24 hours, the plants are contaminated by spraying the cotyledons with an aqueous suspension of cryopreserved Botrytis cinerea spores (50 000 spores per mL). The spores are suspended in a nutrient solution composed of 10 g/L of PDB, 50 g/L of D-Fructose, 2 g/L of NH4NO3 and 1 g/L of KH2PO4. The contaminated gherkin plants are incubated at 17° C. and at 90% relative humidity. Grading (% of efficacy) is carried out 4 to 5 days after the contamination, in comparison with the control plants.

Another data set relates to Septoria tritici. Description: Example I: in vivo preventive test on Septoria tritici (wheat), acetone/tween/DMSO preparation. Conditions: 500 ppm of active ingredient, grading 24 days after contamination. The method in brief:
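Scipion wheat grown at 22° C, sprayed at 1-leaf stage (10 cm); controls received acetone/tween/DMSO/water without active. Inoculated 24 h later with S. tritici spores (500 000/mL), held 72 h at 18° C, 100% RH, then 21 days at 90% RH. % efficacy vs controls scored 24 days post-inoculation.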

Another data set has as its system Puccinia recondita. Description: Example M: in vivo preventive test on Puccinia recondita (brown rust on wheat). Conditions: 500 ppm of active ingredient, grading 12 days after contamination. The gist of the method:
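Wheat (Scipion) sprayed with compound at 1-leaf stage, grown at 22° C. Inoculated 24 h later with a spore suspension at 100 000 spores per mL. Efficacy (%) graded 12 days after inoculation against solvent-treated controls.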

Data set [4] relates to Sphaerotheca fuliginea. Briefly: Example B: in vivo preventive test on Sphaerotheca fuliginea (powdery mildew on cucurbits), gherkin plants. Conditions: 500 ppm of active ingredient, grading 12 days after contamination. The gist of the method:
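Gherkin plants grown at 24 °C were sprayed with compound at the Z11 cotyledon stage; controls received acetone/tween/DMSO/water without active. 24 h later, cotyledons were inoculated by spraying with Sphaerotheca fuliginea spores (100 000 spores per mL).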

The subject of a further data set is Uromyces appendiculatus. Briefly: Example Q: in vivo preventive test on Uromyces appendiculatus (bean rust). To be noted: Uromyces appendiculatus on bean plants, 500 ppm of active ingredient, grading 11 days after contamination. The protocol: In Vivo Preventive Test on Uromyces appendiculatus (Bean Rust) […] Bean plants (“Saxa” variety), sown in starter cups on a 50/50 peat soil pozzolana substrate and grown at 24° C., are treated at the 2 leaf stage (9 cm height) by spraying with the active ingredient prepared as described above. Plants, used as controls, are treated with the mixture of acetone/tween/DMSO/water not containing the active material. After 24 hours, the plants are contaminated by spraying the leaves with an aqueous suspension of Uromyces appendiculatus spores (150 000 spores per mL). The spores are collected from infected plants and are suspended in water containing 2.5 mL/L of Tween 80 at 10%. […] Grading (% of efficacy) is carried out 11 days after the contamination, in comparison with the control plants.

For data set [5], the system named is Pyrenophora teres. Briefly: Example F: in vivo preventive test on Pyrenophora teres (barley), acetone/tween/DMSO preparation. To be noted: 500 ppm of active ingredient, barley, grading 14 days after contamination. The gist of the method: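 Barley ("Plaisant") grown at 22° C was sprayed at the 1-leaf stage (10 cm) with active ingredient in acetone/tween/DMSO/water, with solvent-only controls. After 24 h, leaves were inoculated with Pyrenophora teres spores (12 000 spores per mL) from 12-day cultures. % efficacy versus controls graded 14 days post-contamination.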

A further data set deals with Alternaria brassicae. Description: Example D: in vivo preventive test on Alternaria brassicae (leaf spot on radish). Conditions: 500 ppm of active ingredient, grading 6 days after contamination. The protocol:
In Vivo Preventive Test on Alternaria brassicae (Leaf Spot on Radish) […] Radish plants (“Pernod Clair” variety), sown in starter cups on a 50/50 peat soil pozzolana substrate and grown at 17° C., are treated at the cotyledon stage by spraying with the active ingredient prepared as described above. Plants, used as controls, are treated with the mixture of acetone/tween/DMSO/water not containing the active material. After 24 hours, the plants are contaminated by spraying the cotyledons with an aqueous suspension of Alternaria brassicae spores (50 000 spores per mL). The spores are collected from a 15-day-old culture. The contaminated radish plants are incubated at 20° C. and at 100% relative humidity. Grading (% of efficacy) is carried out 6 days after the contamination, in comparison with the control plants.

Structures are written as SMILES.

`CC1C(CN(C(=O)c2cn(C)nc2C(F)F)C2CC2)CC2CC1C2(C)C` (stereo not shown) [Example 78]: in data set [1], the logP is 4.21. The values for the Efficacy with Sphaerotheca fuliginea [2], in the data set with Alternaria solani and with Pyrenophora teres [3] were 95%, 100% and 100%, respectively.
For `Cn1nc(C(F)F)c(C(=O)NCC2CCC3CC2C3(C)C)c1Cl` (stereo not shown) [Example 83], the logP in data set [1] came to 3.85. For the same compound, the Efficacy with Sphaerotheca fuliginea [2] was determined as 90%; with Alternaria solani it was 95%; in the data set on Pyrenophora teres [3], 100%.
Take `Cn1cc(C(=O)N(CC2CCCC3CCCCC32)C2CC2)c(C(F)F)n1` (stereo not shown) [Example 66]: the Efficacy was found to be 99% in the data set with Botrytis cinerea; 100% with Septoria tritici; 94% in the data set with Puccinia recondita; 100% in the data set with Sphaerotheca fuliginea [4]; 88% in the data set on Uromyces appendiculatus; 100% in the data set on Pyrenophora teres [5]. Moreover, the Efficacy in the data set with Alternaria brassicae came out at 96%. In data set [1], the log partition coefficient (logP) is 4.37.
Regarding `Cc1nn(C)c(F)c1C(=S)N(C1CC1)C(C)C1CC2CCC1C2` (stereo not shown) [Example 98], the logP in data set [1] was 4.34. Also, the Efficacy is 93% in the data set with Sphaerotheca fuliginea [2], 95% in the data set on Alternaria solani and 100% in the data set on Pyrenophora teres [3].
With `Cn1nc(C(F)F)c(C(=O)N(C2CC2)C2CCC3CCCC3C2)c1F` (mixture of isomers) [Example 22], the Efficacy in the data set on Septoria tritici was found to be 88%; in the data set with Puccinia recondita, 100%; in the data set with Sphaerotheca fuliginea [4] it was 100%; with Uromyces appendiculatus, 100%; in the data set on Alternaria solani, 100%; with Pyrenophora teres [3] it was 100%. The Efficacy in the data set on Alternaria brassicae was determined as 93%.
As for `Cn1nc(C(F)F)c(C(=O)N(CC2CCCC3CCCCC32)C2CC2)c1F` (stereo not shown) [Example 65], the Efficacy with Botrytis cinerea, in the data set with Septoria tritici, with Puccinia recondita, with Sphaerotheca fuliginea [4], in the data set on Uromyces appendiculatus and with Pyrenophora teres [5] was 100% throughout. This compound also gave an Efficacy with Alternaria brassicae of 100%. Also, the logP in data set [1] is 4.90.
For the compound `CC(C1CC2C=CC1C2)N(C(=O)c1cn(C)nc1C(F)F)C1CC1` (mixture of isomers) [Example 102], the Efficacy in the data set on Botrytis cinerea is 95%; in the data set on Septoria tritici, 75%; in the data set on Puccinia recondita, 90%; with Sphaerotheca fuliginea [4], 100%; in the data set on Uromyces appendiculatus, 92%; in the data set with Pyrenophora teres [5], 100%. Also, the Efficacy in the data set with Alternaria brassicae is reported as 92%.
In the case of `CC1CC(C)(C)C2CCCC(NC(=S)c3c(C(F)F)nn(C)c3F)C12` (mixture of isomers) [Example 18], the Efficacy in the data set on Sphaerotheca fuliginea [2] was 83%; in the data set with Alternaria solani it was 80%; in the data set on Pyrenophora teres [3], 95%.
With `Cn1cc(C(=O)N(C2CC2)C2CCC3CCCC32)c(C(F)F)n1` (stereo not shown) [Example 6], the Efficacy with Botrytis cinerea is listed as 100%; with Sphaerotheca fuliginea [4], 100%; with Uromyces appendiculatus it was 77%; with Pyrenophora teres [5], 100%; in the data set on Alternaria brassicae it was 100%. In addition, the lipophilicity (logP) in [1] is 3.02.
In the case of `Cn1nc(C(F)F)c(C(=O)NC2CCC3CCCC32)c1Cl` (stereo not shown) [Example 3], the Efficacy in the data set on Botrytis cinerea amounted to 95%; in the data set with Septoria tritici, 92%; in the data set with Puccinia recondita, 75%; in the data set with Uromyces appendiculatus, 100%; in the data set on Alternaria brassicae, 90%. Moreover, the logP in [1] came to 3.09.
For `Cn1cc(C(=O)N(CC2(Cc3ccccc3)CC3CCC2C3)C2CC2)c(C(F)F)n1` (stereo not shown) [Example 70], the Efficacy in the data set on Botrytis cinerea was 100%; with Septoria tritici, 96%; with Sphaerotheca fuliginea [4], 98%; in the data set with Uromyces appendiculatus, 88%; in the data set with Pyrenophora teres [5], 79%; in the data set with Alternaria brassicae it was 91%. Further, the logP in [1] is on record as 4.32.
With `CCc1nn(C)c(F)c1C(=O)N(C1CC1)C(C)C1CC2CCC1C2` (mixture of isomers) [Example 95], the Efficacy with Sphaerotheca fuliginea [2] is listed as 95%; with Alternaria solani, 100%; in the data set with Pyrenophora teres [3], 100%.
